Patent publication US20220168427A1 (Ranok Therapeutics (Hangzhou) Co. Ltd., priority 2019, published 2022)

Experiments:
HSP90α = HSP90α (Homo sapiens, UniProt P07900); assay: HSP90α Binding Fluorescent Polarization (FP) Assay; details: competition with FITC-geldanamycin; read-out: HSP90 Binding Potency
How it was run: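 Competitive FP assay in which compound displaces FITC-geldanamycin from recombinant HSP90α (28 μg/ml before addition) in BSA-containing buffer. Compounds in 3-fold series from 40 μM to 2.0 nM (dilution-plate concentrations), tested in duplicate. Readings after 30, 60 and 120 min at 25 °C; background-subtracted mP fitted to four-parameter log[inhibitor]-response curve.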

BRD4 (BD1+BD2) = biological target: T1, BRD4 (BD1+BD2) (Homo sapiens, UniProt O60885); details: read-out: BRD4 Binding Potency
T1 construct: 1.8 μg/ml recombinant BRD4 (BD1+BD2 domains) protein

MV4-11 cells = assay: MV4-11 Cell Cytotoxicity Assay; type: cell-based, human; details: human, MV4-11 cells, CCK-8
From the text: % Inhibition=100−(D−B)/(S−B)*100%.
S: The absorbance of the maximum (cells with DMSO)
B: The absorbance of the minimum (medium with DMSO)

Row | SMILES | IC50 (HSP90α) | IC50 (BRD4 (BD1+BD2)) | IC50 at 72 h (MV4-11 cells)
1 | Cc1sc2c(c1C)C(c1ccc(Cl)cc1)=N[C@@H](CC(=O)N1CCC(CN3CCC(Cc4ccc(-n5c(C(=O)NCC(F)(F)F)nnc5-c5cc(C(C)C)c(O)cc5O)cc4)CC3)CC1)c1nnc(C)n1-2 [Compound 85, (S)-4-(4-((1-((1-(2-(4-(4-chlorophenyl)-2,3,9-trimethyl-6H-thieno[3,2-f][1,2,4]triazolo[4,3-a][1,4]diazepin-6-yl)acetyl)piperidin-4-yl)methyl)piperidin-4-yl)methyl)phenyl)-5-(2,4-dihydroxy-5-isopropylphenyl)-N-(2,2,2-trifluoroethyl)-4H-1,2,4-triazole-3-carboxamide, formic acid] | 100 to 1000 nM | 100 to 1000 nM | < 100 nM
2 | CCc1cc(-c2nnc(C(=O)NCC(F)(F)F)n2-c2ccc(CC3CCN(CC4CCN(C(=O)C[C@@H]5N=C(c6ccc(Cl)cc6)c6c(sc(C)c6C)-n6c(C)nnc65)CC4)CC3)cc2)c(O)cc1O [Compound 86, (S)-4-(4-((1-((1-(2-(4-(4-chlorophenyl)-2,3,9-trimethyl-6H-thieno[3,2-f][1,2,4]triazolo[4,3-a][1,4]diazepin-6-yl)acetyl)piperidin-4-yl)methyl)piperidin-4-yl)methyl)phenyl)-5-(5-ethyl-2,4-dihydroxyphenyl)-N-(2,2,2-trifluoroethyl)-4H-1,2,4-triazole-3-carboxamide, trifluoroacetic acid] | 100 to 1000 nM | 100 to 1000 nM | < 100 nM
3 | CCNC(=O)c1nnc(-c2cc(CC)c(O)cc2O)n1-c1ccc(CC2CCN(CC3CCN(C(=O)C[C@@H]4N=C(c5ccc(Cl)cc5)c5c(sc(C)c5C)-n5c(C)nnc54)CC3)CC2)cc1 [Compound 87, (S)-4-(4-((1-((1-(2-(4-(4-chlorophenyl)-2,3,9-trimethyl-6H-thieno[3,2-f][1,2,4]triazolo[4,3-a][1,4]diazepin-6-yl)acetyl)piperidin-4-yl)methyl)piperidin-4-yl)methyl)phenyl)-N-ethyl-5-(5-ethyl-2,4-dihydroxyphenyl)-1H-1,2,414-triazole-3-carboxamide, trifluoroacetic acid] | 100 to 1000 nM | 100 to 1000 nM | < 100 nM
4 | CCc1cc(-c2nnc(O)n2-c2ccc(CC3CCN(CC4CCN(C(=O)C[C@@H]5N=C(c6ccc(Cl)cc6)c6c(sc(C)c6C)-n6c(C)nnc65)CC4)CC3)cc2)c(O)cc1O [Compound 88, (S)-2-(4-(4-chlorophenyl)-2,3,9-trimethyl-6H-thieno[3,2-f][1,2,4]triazolo[4,3-a][1,4]diazepin-6-yl)-1-(4-((4-(4-(3-(5-ethyl-2,4-dihydroxyphenyl)-5-hydroxy-4H-1,2,4-triazol-4-yl)benzyl)piperidin-1-yl)methyl)piperidin-1-yl)ethan-1-one, formic acid] | 100 to 1000 nM | 100 to 1000 nM | < 100 nM
5 | Cc1sc2c(c1C)C(c1ccc(Cl)cc1)=N[C@@H](CC(=O)NCc1ccc(CN3CCC(Cc4ccc(-n5c(O)nnc5-c5cc(C(C)C)c(O)cc5O)cc4)CC3)cc1)c1nnc(C)n1-2 [Compound 89, (S)-2-(4-(4-chlorophenyl)-2,3,9-trimethyl-6H-thieno[3,2-f][1,2,4]triazolo[4,3-a][1,4]diazepin-6-yl)-N-(4-((4-(4-(3-(2,4-dihydroxy-5-isopropylphenyl)-5-hydroxy-4H-1,2,4-triazol-4-yl)benzyl)piperidin-1-yl)methyl)benzyl)acetamide, trifluoroacetic acid] | 100 to 1000 nM | 100 to 1000 nM | < 100 nM
6 | CCNC(=O)c1nnc(-c2cc(C(C)C)c(O)cc2O)n1-c1ccc(CC2CCN(CC3CCN(C(=O)C[C@@H]4N=C(c5ccc(Cl)cc5)c5c(sc(C)c5C)-n5c(C)nnc54)CC3)CC2)cc1 [Compound 90, (S)-4-(4-((1-((1-(2-(4-(4-chlorophenyl)-2,3,9-trimethyl-6H-thieno[3,2-f][1,2,4]triazolo[4,3-a][1,4]diazepin-6-yl)acetyl)piperidin-4-yl)methyl)piperidin-4-yl)methyl)phenyl)-5-(2,4-dihydroxy-5-isopropylphenyl)-N-ethyl-4H-1,2,4-triazole-3-carboxamide] | 100 to 1000 nM | 100 to 1000 nM | < 100 nM
7 | CCc1cc(-c2nnc(C(=O)NCC(F)(F)F)n2-c2ccc(CC3CCN(Cc4ccc(CNC(=O)C[C@@H]5N=C(c6ccc(Cl)cc6)c6c(sc(C)c6C)-n6c(C)nnc65)cc4)CC3)cc2)c(O)cc1O [Compound 91, (S)-4-(4-((1-(4-((2-(4-(4-chlorophenyl)-2,3,9-trimethyl-6H-thieno[3,2-f][1,2,4]triazolo[4,3-a][1,4]diazepin-6-yl)acetamido)methyl)benzyl)piperidin-4-yl)methyl)phenyl)-5-(5-ethyl-2,4-dihydroxyphenyl)-N-(2,2,2-trifluoroethyl)-4H-1,2,4-triazole-3-carboxamide, trifluoroacetic acid] | 100 to 1000 nM | 100 to 1000 nM | < 100 nM
8 | Cc1sc2c(c1C)C(c1ccc(Cl)cc1)=N[C@@H](CC(=O)N(C)[C@H](C)c1ccc(CN3CCN(Cc4ccc(-n5c(O)nnc5-c5cc(C(C)C)c(O)cc5O)cc4)CC3)cc1)c1nnc(C)n1-2 [Compound 92, 2-((S)-4-(4-chlorophenyl)-2,3,9-trimethyl-6H-thieno[3,2-f][1,2,4]triazolo[4,3-a][1,4]diazepin-6-yl)-N—((R)-1-(4-((4-(4-(3-(2,4-dihydroxy-5-isopropylphenyl)-5-hydroxy-4H-1,2,4-triazol-4-yl)benzyl)piperazin-1-yl)methyl)phenyl)ethyl)-N-methylacetamide, trifluoroacetic acid] | > 1000 nM | > 1000 nM | 100 to 1000 nM
9 | Cc1sc2c(c1C)C(c1ccc(Cl)cc1)=N[C@@H](CC(=O)N(C)[C@H](C)c1ccc(CN3CCC(Cc4ccc(-n5c(O)nnc5-c5cc(C(C)C)c(O)cc5O)cc4)CC3)cc1)c1nnc(C)n1-2 [Compound 93, 2-((S)-4-(4-chlorophenyl)-2,3,9-trimethyl-6H-thieno[3,2-f][1,2,4]triazolo[4,3-a][1,4]diazepin-6-yl)-N—((R)-1-(4-((4-(4-(3-(2,4-dihydroxy-5-isopropylphenyl)-5-hydroxy-4H-1,2,4-triazol-4-yl)benzyl)piperidin-1-yl)methyl)phenyl)ethyl)-N-methylacetamide, trifluoroacetic acid] | 100 to 1000 nM | 100 to 1000 nM | < 100 nM
10 | Cc1sc2c(c1C)C(c1ccc(Cl)cc1)=N[C@@H](CC(=O)N1CCC(CN3CCC(Cc4ccc(-n5c(O)nnc5-c5cc(C(C)C)c(O)cc5O)cc4)CC3)CC1)c1nnc(C)n1-2 [Compound 94, (S)-2-(4-(4-chlorophenyl)-2,3,9-trimethyl-6H-thieno[3,2-f][1,2,4]triazolo[4,3-a][1,4]diazepin-6-yl)-1-(4-((4-(4-(3-(2,4-dihydroxy-5-isopropylphenyl)-5-hydroxy-4H-1,2,4-triazol-4-yl)benzyl)piperidin-1-yl)methyl)piperidin-1-yl)ethan-1-one, trifluoroacetic acid] | < 100 nM | 100 to 1000 nM | < 100 nM
11 | Cc1sc2c(c1C)C(c1ccc(Cl)cc1)=N[C@@H](CC(=O)NCCc1ccc(CN3CCC(Cc4ccc(-n5c(C(=O)NCC(F)(F)F)nnc5-c5cc(C(C)C)c(O)cc5O)cc4)CC3)cc1)c1nnc(C)n1-2 [Compound 95, (S)-4-(4-((1-(4-(2-(2-(4-(4-chlorophenyl)-2,3,9-trimethyl-6H-thieno[3,2-f][1,2,4]triazolo[4,3-a][1,4]diazepin-6-yl)acetamido)ethyl)benzyl)piperidin-4-yl)methyl)phenyl)-5-(2,4-dihydroxy-5-isopropylphenyl)-N-(2,2,2-trifluoroethyl)-4H-1,2,4-triazole-3-carboxamide, trifluoroacetic acid] | 100 to 1000 nM | 100 to 1000 nM | < 100 nM
12 | Cc1sc2c(c1C)C(c1ccc(Cl)cc1)=N[C@@H](CC(=O)NCc1ccc(CN3CCC(Cc4ccc(-n5c(C(=O)NCC(F)(F)F)nnc5-c5cc(C(C)C)c(O)cc5O)cc4)CC3)cc1)c1nnc(C)n1-2 [Compound 96, (S)-4-(4-((1-(4-((2-(4-(4-chlorophenyl)-2,3,9-trimethyl-6H-thieno[3,2-f][1,2,4]triazolo[4,3-a][1,4]diazepin-6-yl)acetamido)methyl)benzyl)piperidin-4-yl)methyl)phenyl)-5-(2,4-dihydroxy-5-isopropylphenyl)-N-(2,2,2-trifluoroethyl)-4H-1,2,4-triazole-3-carboxamide, trifluoroacetic acid] | 100 to 1000 nM | < 100 nM | < 100 nM
13 | Cc1sc2c(c1C)C(c1ccc(Cl)cc1)=N[C@@H](CC(=O)N[C@H](C)c1cccc(CN3CCC(Cc4ccc(-n5c(C(=O)NCC(F)(F)F)nnc5-c5cc(C(C)C)c(O)cc5O)cc4)CC3)c1)c1nnc(C)n1-2 [Compound 97, 4-(4-((1-(3-((R)-1-(2-((S)-4-(4-chlorophenyl)-2,3,9-trimethyl-6H-thieno[3,2-f][1,2,4]triazolo[4,3-a][1,4]diazepin-6-yl)acetamido)ethyl)benzyl)piperidin-4-yl)methyl)phenyl)-5-(2,4-dihydroxy-5-isopropylphenyl)-N-(2,2,2-trifluoroethyl)-4H-1,2,4-triazole-3-carboxamide, trifluoroacetic acid] | 100 to 1000 nM | < 100 nM | < 100 nM
